Laboratory results from patent US20250134847A1, “COMBINATION THERAPIES” (QBIOTICS PTY LTD, priority 2022, published 2025).
Read-outs that look alike come from different tables or passages of the source.

Tests used:
MC38 tumours = MC38 tumours in C57BL/6 syngeneic mouse model, intratumoural Compound 1 and external beam irradiation; format: in vivo; settings: for Median Survival: Syngeneic Model
Description: The MC38 cell line is a murine colonic adenocarcinoma cell line derived from the C57BL/6 mouse (Kerafast, ENH204).
(§1) Subjects were ear tagged for identification.
Adequate positioning was ensured with the irradiator (Gammacel 40 Extractor) by sedating each mouse with a combination solution of Ketamine (80 mg/kg of 8 mg/mL solution, Ceva, NSW, AU) and Midazolam (4 mg/kg of 0.4 mg/mL solution, Sandoz, Hozkirchen, Germany) via intraperitoneal injection. Mice were double contained during transfer to and from the irradiator. During irradiation, mice were restrained with lead shielding to prevent exposure to sites other than the flanks where the tumours were located. […] On completion of treatment, mice were warmed with a heating blanket, placed on their side, and observed until ambulant.
(§2) Tumour volume was recorded as above.

SCC-15 tumours [1] = settings: Xenogeneic Model
Description: (§3) Prior to inoculation of subject mice, the cancer cells were seeded to T175 tissue culture flasks (Thermo Scientific) to increase cell numbers. Once 70-80% confluent, cells were trypsinized and resuspended in RPMI-1640 media for harvesting and cell count using a haemocytometer. The cell volume was centrifuged and the pellet reconstituted in RPMI-1640 media to a volume sufficient for the number of inoculations required at 100 μL per injection with two sites per mouse subject. The cell suspension was kept on ice and transferred to the animal facility for injection into the subjects.
The BALB/c Foxn1^nu mice were obtained from the Animal Resource Centre, Western Australia. The C3H/HeNCr mice were bred at the QIMR Animal Facility.
C3H/HeNCr mice were shaved (Wahl, Illinois, USA) one day before inoculation. Whilst restrained subjects were inoculated on the hind quarter bilaterally by injecting 100 μL of the appropriate cell suspension into the subcutaneous space with a Terumo® (Tokyo, Japan) 27G×½″ needle. Subjects were ear tagged for identification. Following inoculation, mice were monitored twice weekly for tumour development and well-being and once tumours developed, the subjects were monitored daily.
(§4) A cohort of thirty BALB/c Foxn1^nu and twenty-one C3H/HeNCr mice, each with two tumours per mouse were divided into six experimental groups as set out in Table 2.
(§5) Weight was recorded for each subject prior to and post-treatment, and at the time of culling. The width and length of each tumour was measured using 150 mm digital Vernier callipers (Kinchrome, Qld, AU) and individual tumour volume (mm^3) calculated using the formula:
IP injections were performed by first sterilizing the anterior abdominal wall of the subject with an alcohol swab before the dorsal skin of the subject was scruffed and the subject inverted with head down. A 29 G needle with the bevel upwards is used to inject into the lower right abdominal quadrant. […]
Tumour volume was recorded as above. […]
Data was analysed with Microsoft Excel and Prism 7 to calculate average tumour volumes and standard deviations (SD). […]

B16-F10-OVA tumours = experiment: B16-F10-OVA mouse melanoma tumours in C57BL/6 mice, intratumoural Compound 1 and intraperitoneal doxorubicin
Description: (§6) B16-F10-OVA (B16-F10 mouse melanoma cell line overexpressing chicken ovalbumin) were cultured in RPMI-1640 supplemented with 10% FCS (complete medium) and 3 mM HEPES. LLC (Lewis Lung Carcinoma) cells were cultured in DMEM (Gibco) supplemented with 10% FCS. Both cell lines were incubated at 37° C., 5% CO2 in a humidified incubator.
(§7) C57BL/6 mice were purchased from the Animal Resources Centre (ARC), Murdoch, Western Australia. […] All mice were housed in a specific pathogen free (SPF) facility, with 12 hours light/dark cycle and continual access to food and water.
C57BL/6 mice (6-7 weeks old) were injected subcutaneously (s.c.) on both flanks with B16-F10-OVA mouse melanoma cells (2×10^5 cells per site in 50 μl) or LLC mouse lung cancer cells (5×10^5 cells per site in 50 μl). Tumours were allowed to develop to approximately 75-100 mm^3. Mice were then treated intra-peritoneally with doxorubicin in saline (3 mg/kg; 60 μg/dose, saline for vehicle). […] Treatment with the chemotherapy agent was repeated after 7 and 14 days. For the B16-F10-OVA model, 5 mice per group (10 tumours) were used in duplicate experiments (total of 10 mice per group, 20 tumours in total from both experiments). For the LLC tumour model, 5 mice per group were used in a single experiment (10 tumours).
Volumes were recorded using digital calipers and expressed as mm^3 according to the formula A×b×b×0.5 where A=length and b=measured breadth of the tumour. Mice were also assessed for clinical signs of distress according to an approved clinical score sheet during the experiment. The experiment ceased when an unacceptable clinical score (>6) was reached, or the cumulative tumour burden of the mouse exceeded 1,000 mm^3. […] Mice were humanely euthanized by CO2 asphyxiation at the end of the experiment.

UV-13-1 tumours = settings: for Median Survival: Syngeneic Model
Description: as §3
C3H/HeNCr mice were shaved (Wahl, Illinois, USA) one day before inoculation. Whilst restrained subjects were inoculated on the hind quarter bilaterally by injecting 100 μL of the appropriate cell suspension into the subcutaneous space with a Terumo® (Tokyo, Japan) 27G×½″ needle. […] Following inoculation, mice were monitored twice weekly for tumour development and well-being and once tumours developed, the subjects were monitored daily.
as §4, §5
IP injections were performed by first sterilizing the anterior abdominal wall of the subject with an alcohol swab before the dorsal skin of the subject was scruffed and the subject inverted with head down. A 29 G needle with the bevel upwards is used to inject into the lower right abdominal quadrant.
On reaching a volume of 70-100 mm^3, tumours of the test subjects were injected IT with 50 μL of either 5 μg or 10 μg of Compound 1 or for control subjects 50 μL of 40% propylene glycol (PG).
The subjects were euthanized by CO2 inhalation when total tumour burden reached 1000 mm^3 per mouse, if ill, and on completion of the experiment.
Data was analysed with Microsoft Excel and Prism 7 to calculate average tumour volumes and standard deviations (SD). Individual and averaged tumour volumes and Kaplan-Meier survival curves were graphed relative to time of treatment.
C3H/HeNCr mouse model inoculated with UV-13-1 tumours is a syngeneic model where the mouse is immunocompetent and the influence of the immune system on treatment may be assessed. These mice were not culled at 60 days but were periodically (weekly) monitored up to 200 days for recurrence.

A431 cells = settings: for Combination Index at IC50, Irradiation: with irradiation
Description: (§8) Cells were seeded at 3000 cells/well in 100 μL of medium in flat bottom 96 well cell culture plates (Corning Incorporated, New York, USA). Cells were incubated for 24 hr to ensure plate adherence prior to treatment.
(§9) One in two dilutions were then performed down the plate leaving the last row as an untreated control.
(§10) Each cell line was treated with each agent in triplicate with data being averaged across the three trials.
(§11) For single agent experiments, wells included no treatment and ethanol treatment controls. Following treatment, cells were incubated for 4 hours prior to washing with PBS and replacement of medium.
(§12) Following incubation of treated cells for 5-7 days, cell survival was determined using a sulforhodamine B (SRB) proliferation assay. This assay quantitatively assesses the degree of protein staining as a surrogate marker for cellular growth. Cells were washed with PBS and subsequently fixed with methylated spirits (Chem Supply, South Australia) for at least five minutes. Following fixation, the methylated spirits was removed and cells again washed gently with water prior to staining with 50 μL/well of 0.4% SRB solution (Sigma Aldrich) in 1% acetic acid for sixty minutes. This solution was tipped off and cells quickly washed twice with 1% acetic acid. The assay was completed with administration of 100 μL/well of 10 mM Tris base (unbuffered, pH >9, Invitrogen). Absorbance was measured on an enzyme-linked immunosorbent assay (ELISA) reader (VERSA max microplate reader, Molecular Devices, California, USA) at 564 nm and a five second agitation. Cell survival was graphed as a percentage of control well absorbance against dose.
(§13) Analysis was performed using the software program Combusyn.
(§14) As for the single agent experimentation, the cell lines were maintained in culture before their eventual transfer to 96-well plates. […] Cell survival was determined relative to no-treatment controls after 7 days of incubation using SRB assays.

LLC tumours = experiment: Lewis Lung Carcinoma (LLC) tumours in C57BL/6 mice, intratumoural Compound 1 and intraperitoneal doxorubicin; format: in vivo, mouse
Description: as §6, §7
C57BL/6 mice (6-7 weeks old) were injected subcutaneously (s.c.) on both flanks with B16-F10-OVA mouse melanoma cells (2×10^5 cells per site in 50 μl) or LLC mouse lung cancer cells (5×10^5 cells per site in 50 μl). Tumours were allowed to develop to approximately 75-100 mm^3. Mice were then treated intra-peritoneally with doxorubicin in saline (3 mg/kg; 60 μg/dose, saline for vehicle). […] Treatment with the chemotherapy agent was repeated after 7 and 14 days. […]
Volumes were recorded using digital calipers and expressed as mm^3 according to the formula A×b×b×0.5 where A=length and b=measured breadth of the tumour. Mice were also assessed for clinical signs of distress according to an approved clinical score sheet during the experiment. […]

SCC-15 cells = settings: for Combination Index at IC50, Irradiation: with irradiation; for relationship by Chou-Talalay combination index method: Compound 1 with irradiation
Description: as §8, §9, §10, §11, §12, §13, §14

SCC-15 tumours [2] = experiment: SCC-15 tumours in BALB/c Foxn1^nu xenogeneic mouse model, intratumoural Compound 1 and external beam irradiation; format: in vivo; settings: for Median Survival: Xenogeneic Model
Description: as §1
Adequate positioning was ensured with the irradiator (Gammacel 40 Extractor) by sedating each mouse with a combination solution of Ketamine (80 mg/kg of 8 mg/mL solution, Ceva, NSW, AU) and Midazolam (4 mg/kg of 0.4 mg/mL solution, Sandoz, Hozkirchen, Germany) via intraperitoneal injection. Mice were double contained during transfer to and from the irradiator. During irradiation, mice were restrained with lead shielding to prevent exposure to sites other than the flanks where the tumours were located.
as §2

[3] = 5 Gy irradiation + IT 7.5 μg Compound 1
[4] = 10 Gy irradiation + IT 7.5 μg Compound 1
[5] = syngeneic model, 5 Gy irradiation + 7.5 μg IT Compound 1
[6] = syngeneic model, 10 Gy irradiation + 7.5 μg IT Compound 1
[7] = IP N/Saline + IT 5 μg Compound 1
[8] = IP N/Saline + IT 10 μg Compound 1
[9] = 5 μg or 10 μg Compound 1, p<0.0001
[10] = IP cisplatin 2.5 mg/kg + IT 40% PG
[11] = intraperitoneal doxorubicin 3 mg/kg + intralesional 40% PG/30 mM acetate

C/C=C(\C)C(=O)O[C@@H]1[C@@H](C)[C@@]2(O)[C@H]([C@@H]3C(C)(C)[C@]13OC(=O)[C@@H](C)CC)[C@@H]1O[C@]1(CO)[C@@H](O)[C@]1(O)C(=O)C(C)=C[C@H]12 [Compound 1, 12-tigloyl-13-(2-methylbutanoyl)-6,7-epoxy-4,5,9,12,13,20-hexahydroxy-1-tiglien-3-one]
Median Survival (MC38 tumours; 0 Gy + IT 7.5 μg Compound 1): 13 days
Median Survival (MC38 tumours; [3]): 31 days
Median Survival (MC38 tumours; [4]): 47 days
cure rate (MC38 tumours; syngeneic model, 7.5 μg IT Compound 1 alone): 70%
survival at experiment end (MC38 tumours; [5]): 20%
tumours that remained cured at 200 days following treatment (MC38 tumours; [5]): two
survival at experiment end (MC38 tumours; [6]): 20%
tumours that remained cured at 200 days following treatment (MC38 tumours; [6]): two
cure rate (proportion of tumours responding completely) (MC38 tumours; syngeneic model, Compound 1 and 5 Gy irradiation): 100%
cure rate (proportion of tumours responding completely) (MC38 tumours; syngeneic model, Compound 1 and 10 Gy irradiation): 100%
duration of treatment response (MC38 tumours; syngeneic model, Compound 1 monotherapy): 6.2 days
duration of treatment response (MC38 tumours; syngeneic model, Compound 1 with 5 Gy irradiation): 64.6 days
duration of treatment response (MC38 tumours; syngeneic model, Compound 1 with 10 Gy irradiation): 65.9 days
improvement of duration of treatment response over monotherapy (MC38 tumours; syngeneic model, Compound 1 with irradiation, either 5 Gy or 10 Gy): ≥ 8.7 ×
tumour response (individual and average tumour volumes) (MC38 tumours; syngeneic model, combinations of Compound 1 and irradiation): considerably improved tumour response
Median Survival (SCC-15 tumours [1]; [7]): 11 days
Median Survival (SCC-15 tumours [1]; [8]): 13 days
tumour growth and overall survival compared to vehicle alone (B16-F10-OVA tumours; [9]): slowed tumour growth and prolonged overall survival
tumours completely ablated (B16-F10-OVA tumours; saline/10 μg Compound 1 group): 4/20
Median Survival (UV-13-1 tumours; [7]): 16.5 days
Median Survival (UV-13-1 tumours; [8]): 23.5 days
efficacy versus IP cisplatin alone (UV-13-1 tumours; syngeneic model, 5 μg and 10 μg Compound 1 IT with saline): more efficacious than IP cisplatin alone
Combination Index at IC50, Irradiation (A431 cells; Compound 1 concentration 10 μM): 0.33
Combination Index at IC50, Irradiation (A431 cells; Compound 1 concentration 50 μM): 0.41
Combination Index at IC50, Irradiation (A431 cells; Compound 1 concentration 100 μM): 0.12
Combination Index at IC50, Irradiation (A431 cells; Compound 1 concentration 200 μM): 0.08
cell death compared to Compound 1 alone (A431 cells; Compound 1 with any concentration of irradiation): significant increase in cell death
relationship by Chou-Talalay combination index method (A431 cells; Compound 1 with irradiation): synergistic
tumour growth and overall survival compared to vehicle alone (LLC tumours; [9]): slowed tumour growth and prolonged overall survival
Combination Index at IC50, Irradiation (SCC-15 cells; Compound 1 concentration 2 μM): 0.15
Combination Index at IC50, Irradiation (SCC-15 cells; Compound 1 concentration 20 μM): 2.1
Combination Index at IC50, Irradiation (SCC-15 cells; Compound 1 concentration 40 μM): 1.75
Combination Index at IC50, Irradiation (SCC-15 cells; Compound 1 concentration 60 μM): 1.34
relationship by Chou-Talalay combination index method (SCC-15 cells; at low concentrations): synergistic
relationship by Chou-Talalay combination index method (SCC-15 cells; some combination indices (CI >1)): consistent with antagonism
cell survival (SCC-15 cells; exposure to Compound 1 and irradiation): pronounced fall in cell survival
Median Survival (SCC-15 tumours [2]; 0 Gy + IT 7.5 μg Compound 1): 22 days
Median Survival (SCC-15 tumours [2]; [3]): 32 days
Median Survival (SCC-15 tumours [2]; [4]): 166 days
cure rate (SCC-15 tumours [2]; xenogeneic model, 7.5 μg IT Compound 1 alone): 70%
survival rate at 200 days (SCC-15 tumours [2]; xenogeneic model, 5 Gy irradiation + 7.5 μg IT Compound 1): 20%
survival rate at 200 days (SCC-15 tumours [2]; xenogeneic model, 10 Gy irradiation + 7.5 μg IT Compound 1): 50%
cure rate (proportion of tumours responding completely) (SCC-15 tumours [2]; xenogeneic model, Compound 1 and 5 Gy irradiation): 80%
cure rate (proportion of tumours responding completely) (SCC-15 tumours [2]; xenogeneic model, Compound 1 and 10 Gy irradiation): 70%
tumour size response compared to other combinations (SCC-15 tumours [2]; xenogeneic model, Compound 1 combined with irradiation): significant and durable reduction in tumour size
duration of treatment response (SCC-15 tumours [2]; xenogeneic model, Compound 1 monotherapy): 11 days
duration of treatment response (SCC-15 tumours [2]; xenogeneic model, Compound 1 with 5 Gy irradiation): 51.5 days
duration of treatment response (SCC-15 tumours [2]; xenogeneic model, Compound 1 with 10 Gy irradiation): 111 days
improvement of duration of treatment response over monotherapy (SCC-15 tumours [2]; xenogeneic model, Compound 1 with irradiation, either 5 Gy or 10 Gy): at least 4.6 ×

N.N.[Cl][Pt][Cl] [cisplatin, reference compound]
Median Survival (SCC-15 tumours [1]; [10]): 11 days
Median Survival (UV-13-1 tumours; [10]): 12 days

COc1cccc2c1C(=O)c1c(O)c3c(c(O)c1C2=O)C[C@@](O)(C(=O)CO)C[C@@H]3O[C@H]1C[C@H](N)[C@H](O)[C@H](C)O1 [doxorubicin, reference compound]
effect on tumour growth (B16-F10-OVA tumours; [11]): no effect on tumour growth
effect on tumour growth and survival (LLC tumours; [11]): minor effect on slowing tumour growth and prolonging survival
